One data set is described as follows: MTT assay on A549 cells. The data set is classed as cell-based, human. To be noted: human, A549 lung carcinoma cells, 72 h, read-out: Cell Viability, %; for viability at 72 h, 10 µM: A549, 10 µM; for viability at 72 h, 100 µM: A549, 100 µM. As to the method: (§1) A549, NCI-H460, NCI-H1975 lung cancer cells and WI-26 VA4 lung epithelial-like cells were purchased from the ATCC. A549 cells were maintained in F12-K (Corning, NY, USA) supplemented with 10% fetal bovine serum (Fetal Bovine Serum, qualified, Australia; Gibco, Loughborough, UK), penicillin (100 UI mL^−1), streptomycin (100 µg mL^−1), and GlutaMax (1.9 mM, Gibco, UK). NCI-H460 and NCI-H1975 cells were maintained in RPMI-1640 (ATCC modification) media (Gibco, Loughborough, UK) supplemented with 10% fetal bovine serum (Fetal Bovine Serum, qualified, Australia; Gibco, Loughborough, UK), penicillin (100 UI mL^−1), streptomycin (100 µg mL^−1), and GlutaMax (2 mM, Gibco, UK). WI-26 VA4 cells were maintained in Advanced MEM (Gibco, Loughborough, UK) supplemented with 5% fetal bovine serum (Fetal Bovine Serum, qualified, Australia, Gibco, UK), penicillin (100 UI mL^−1), streptomycin (100 µg mL^−1), and GlutaMax (1.87 mM, Gibco, Loughborough, UK). All cells line cultivation under a humidified atmosphere of 95% air/5% CO2 at 37 °C. Subconfluent monolayers, in the log growth phase, were harvested by a brief treatment with TrypLE Express solution (Gibco, Loughborough, UK) in phosphate buffered saline (PBS, Capricorn Scientific, Germany) and washed three times in serum-free PBS. The number of viable cells was determined by trypan blue exclusion.
(§2) The effects of the synthesized compounds on cell viability were determined using the MTT colorimetric test. All examined cells were diluted with the growth medium to 3.5 × 10^4 cells per mL and the aliquots (7 × 10^3 cells per 200 μL) were placed in individual wells in 96-well plates (Eppendorf, Hamburg, Germany) and incubated for 24 h. The next day, the cells were treated with synthesized compounds separately in concentration 10 and 100 μM (or 200.0 μM concentration and diluted at various concentrations for determination of IC50) and incubated for 72 h at 37 °C in 5% CO2 atmosphere. Each compound was tested in triplicate. After incubation, the cells were treated with 40 μL MTT solution (3-(4,5-dimethylthiazol-2-yl)-2,5-diphenyltetrazolium bromide, 5 mg mL^−1 in PBS) and incubated for 4 h. After additional 4-h incubation, the medium with MTT was removed and DMSO (150 μL) was added to dissolve the formazan crystals. The plates were shaken for 10 min. The optical density of each well was determined at 560 nm using GloMax Multi+ (Promega, Madison, WI, USA) microplate reader. Each of the tested compounds was evaluated for cytotoxicity in three separate experiments. All stock solutions for biological evaluations were prepared via dissolving synthesized compounds in DMSO.

For data set [1], the system named is non-cancerous lung fibroblast WI-26 VA4. The experiment in a line: MTT assay on WI-26 VA4 cells (non-specific cytotoxicity). The data set is classed as cell-based, human. The conditions noted are these: WI-26 VA4, 72 h. As to the method: as §1, §2
Data set [2] concerns NCI-H460 non-small cell lung carcinoma cells. Nature of the data set: MTT assay on NCI-H460 cells. To be noted: NCI-H460, 72 h. The data set is classed as cell-based, human. As to the method: as §1, §2
Data set [3] concerns A549 human lung carcinoma cells. Nature of the data set: MTT assay on A549 cells. The class given is cell-based. The conditions noted are these: A549, 72 h. As to the method: as §1, §2
Data set [4] relates to EGFR-mutant NCI-H1975 non-small cell lung carcinoma cells. The experiment in a line: MTT assay on NCI-H1975 cells. The data set is classed as cell-based, human. To be noted: NCI-H1975, 72 h, MTT. As for the experimental part: as §1, §2
Data set [5] is described as follows: Molar conductivity in DMSO solution. The data set is classed as physicochemical. The conditions noted are these: DMSO solutions, 25 °C. As for the experimental part:
The preparation and characterization of starting pyridine-N-oxides as well as U1–12 are described previously. CuCl2, other reactants, and solvents were obtained from commercial sources. High-resolution mass-spectra (HRMS) were measured on Bruker Maxis HRMS-ESI-qTOF (Electrospray Ionization, ESI; Bruker, Billerica, MA, USA); a MeOH was used as the solvent. The instrument was operated at positive ion mode using m/z range of 50–3000. The capillary voltage of the ion source was set at –4500 V (ESI^+) and the capillary exit at +(70–150) V. The nebulizer gas pressure was 0.4 bar and drying gas flow was 4.0 L/min. The most intensive peak in the isotopic pattern is reported. Infrared spectra (4000–400 cm^–1) were recorded on a Shimadzu FTIR 8400S (Shimadzu, Kyoto, Japan) instrument in KBr pellets. The C, H, and N elemental analyses were carried out on a Leco TruSpec Micro CHNS analyzer (LECO, St. Joseph, MI, USA). TGA was performed on a ca. 2 mg samples of Cu(II) complexes by using a Netzsch TG 209 F1 Libra thermal analyzer (Netzsch, Selb, Germany). The samples were dried under a vacuum at 50 °C before heating from 40 to 450 °C at a heating rate of 10 K min^–1. A flow rate of 10 mL min^–1 of dry argon was used to purge the samples. Molar conductivity was measured with an Elico digital conductivity bridge model CM-88, using a freshly prepared DMSO solution of the complexes.

In article PMC8962293, “Synthesis, Structure, and Antiproliferative Action of 2-Pyridyl Urea-Based Cu(II) Complexes” (Biomedicines, 2022) one finds viability, IC50 and Molar conductivity data, which are given here for 22 compounds.

Each structure is given as a SMILES string.

On to `Cc1nc(-c2ccnc(NC(=O)N(C)C)c2)no1` [Complex U5], for which, in the data set “MTT assay on A549 cells”, the viability at 72 h, 10 µM is 101 ± 5.5% and the viability at 72 h, 100 µM is 90.2 ± 8.7%.
For `O=C(Nc1cc([N+](=O)[O-])ccn1)N1CCCCC1` [Complex U11] the same measures were 105 ± 6.7% and 94.3 ± 9%.
As for `Cc1nc(-c2ccnc(NC(=O)N(C)C)c2)no1.Cc1nc(-c2ccnc(NC(=O)N(C)C)c2)no1.[Cl-].[Cl-].[Cu+2]` [[Cu(U5)2Cl]^+[Cl]^−], the 50% inhibitory concentration (IC50) in data set [1] worked out at 118 ± 24.9 µM; in data set [2], 136 ± 12.5 µM; in data set [3], 114 ± 14.5 µM; in data set [4], 71.2 ± 6.9 µM.
Consider `O=C(Nc1ccccn1)N1CCCCC1.O=C(Nc1ccccn1)N1CCCCC1.[Cl-].[Cl-].[Cu+2]` [[Cu(U8)2Cl]^+[Cl]^−], for which the 50% inhibitory concentration (IC50) in data set [1] came to 111 ± 19.3 µM; in data set [2], 102 ± 17.3 µM; in data set [3], 98.4 ± 11.1 µM; in data set [4], 64.4 ± 10.5 µM.
The corresponding values for `O=C(Nc1ccccn1)N1CCCC1.O=C(Nc1ccccn1)N1CCCC1.[Cl-].[Cl-].[Cu+2]` [[Cu(U7)2Cl]^+[Cl]^−] are 100 ± 16.6 µM, 103 ± 13.1 µM, 102 ± 15.8 µM and 66.7 ± 7.6 µM.
Regarding `Cc1nnc(-c2ccnc(NC(=O)N(C)C)c2)o1` [Complex U6], in the data set “MTT assay on A549 cells”, the viability at 72 h, 10 µM came to 94.5 ± 7.1% and the viability at 72 h, 100 µM stood at 89.9 ± 2.4%.
As to `CN(C)C(=O)Nc1cc(C#N)ccn1.CN(C)C(=O)Nc1cc(C#N)ccn1.[Cl-].[Cl-].[Cu+2]` [[Cu(U4)2Cl]^+[Cl]^−], the IC50 in data set [1] was determined as 109 ± 16.4 µM; in data set [2], 118 ± 13.4 µM; in data set [3], 106 ± 12.2 µM; in data set [4], 68.3 ± 8.5 µM. Moreover, the Molar conductivity in data set [5] is 25.2 Ω^−1·cm^2·mol^−1.
Consider `COc1ccnc(NC(=O)N2CCCCC2)c1` [Complex U10], for which, in the data set “MTT assay on A549 cells”, the viability at 72 h, 10 µM came out at 102 ± 5.2% and the viability at 72 h, 100 µM amounted to 99.5 ± 8.1%.
For `Cc1ccnc(NC(=O)N2CCCCC2)c1.Cc1ccnc(NC(=O)N2CCCCC2)c1.[Cl-].[Cl-].[Cu+2]` [[Cu(U9)2Cl]^+[Cl]^−], the IC50 was found to be 113 ± 23.5 µM in data set [1], 66.4 ± 5.7 µM in data set [2], 76.1 ± 8.86 µM in data set [3] and 61.6 ± 6 µM in data set [4].
In the case of `CN(C)C(=O)Nc1cc([N+](=O)[O-])ccn1` [Complex U3], in the data set “MTT assay on A549 cells”, the viability at 72 h, 10 µM worked out at 95.5 ± 3.3% and the viability at 72 h, 100 µM worked out at 91.6 ± 4.3%.
For `Cc1ccnc(NC(=O)N2CCOCC2)c1` [Complex U12] the same measures were 97.4 ± 5.5% and 85.4 ± 7.8%.
For the compound `Cc1ccnc(NC(=O)N(C)C)c1` [Complex U2], in “MTT assay on A549 cells”, the viability at 72 h, 10 µM came out at 102 ± 2.7% and the viability at 72 h, 100 µM was 98.7 ± 3.8%.
Consider `CN(C)C(=O)Nc1ccccn1.CN(C)C(=O)Nc1ccccn1.[Cl-].[Cl-].[Cu+2]` [[Cu(U1)2Cl]^+[Cl]^−], for which the 50% inhibitory concentration (IC50) in data set [1] came out at 108 ± 27.5 µM; in data set [2], 120 ± 18.4 µM; in data set [3], 107 ± 15.1 µM; in data set [4] it was 65.3 ± 10.9 µM.
For `Cc1nnc(-c2ccnc(NC(=O)N(C)C)c2)o1.Cc1nnc(-c2ccnc(NC(=O)N(C)C)c2)o1.[Cl-].[Cl-].[Cu+2]` [[Cu(U6)2Cl]^+[Cl]^−], the IC50 stood at 105 ± 14.1 µM in data set [1], 115 ± 26.3 µM in data set [2], 88.7 ± 12.7 µM in data set [3] and 63.8 ± 8.7 µM in data set [4].
Consider `O=C(Nc1cc([N+](=O)[O-])ccn1)N1CCCCC1.O=C(Nc1cc([N+](=O)[O-])ccn1)N1CCCCC1.[Cl-].[Cl-].[Cu+2]` [[Cu(U11)2Cl2]], for which the concentration for half-maximal inhibition (IC50) was 62.4 ± 5.6 µM in data set [1], 53.6 ± 4.7 µM in data set [2], 46 ± 4.98 µM in data set [3] and 33.4 ± 3.8 µM in data set [4]. For the same compound, in data set [5], the Molar conductivity is recorded as 21.7 Ω^−1·cm^2·mol^−1.
For the compound `O=C(Nc1ccccn1)N1CCCCC1` [Complex U8], in the data set “MTT assay on A549 cells”, the viability at 72 h, 10 µM is 100 ± 9.4% and the viability at 72 h, 100 µM was 97.2 ± 6.1%.
The corresponding values for `Cc1ccnc(NC(=O)N2CCCCC2)c1` [Complex U9] are 103 ± 6.3% and 98.3 ± 8.1%.
For `O=C(Nc1ccccn1)N1CCCC1` [Complex U7] the same measures were 103 ± 2.8% and 99.8 ± 5.7%.
As to `Cc1ccnc(NC(=O)N2CCOCC2)c1.Cc1ccnc(NC(=O)N2CCOCC2)c1.[Cl-].[Cl-].[Cu+2]` [[Cu(U12)2Cl]^+[Cl]^−], the 50% inhibitory concentration (IC50) was 109 ± 13.7 µM in data set [1], 128 ± 19.5 µM in data set [2], 89.3 ± 6.67 µM in data set [3] and 70.2 ± 4.9 µM in data set [4].
For the compound `Cc1ccnc(NC(=O)N(C)C)c1.Cc1ccnc(NC(=O)N(C)C)c1.[Cl-].[Cl-].[Cu+2]` [[Cu(U2)2Cl]^+[Cl]^−], the IC50 came out at 101 ± 15.1 µM in data set [1], 122 ± 15.3 µM in data set [2], 94.5 ± 14.1 µM in data set [3] and 65.4 ± 8.6 µM in data set [4]. Also, the Molar conductivity in data set [5] is on record as 24.8 Ω^−1·cm^2·mol^−1.
Regarding `CN(C)C(=O)Nc1ccccn1` [Complex U1], in “MTT assay on A549 cells”, the viability at 72 h, 10 µM is 100 ± 18% and the viability at 72 h, 100 µM was found to be 86.5 ± 7.5%.
Consider `CN(C)C(=O)Nc1cc(C#N)ccn1` [Complex U4], for which, in the data set “MTT assay on A549 cells”, the viability at 72 h, 10 µM is 94.2 ± 6.7% and the viability at 72 h, 100 µM stood at 89 ± 5.1%.
